Data on 7 compounds can be found in patent US20230233569A1 (Revolution Medicines, Inc., priority 2020, published 2023).

Assay [1] relates to AsPC-1 (K-Ras G12D). In words: CellTiter-Glo cell viability assay. The format is cell-based. The following applies: Homo sapiens, ASPC1, 120 h. The procedure: Determination of Cell Viability in RAS Mutant Cancer Cell Lines
Protocol: CellTiter-Glo® Cell Viability Assay
Note—The following protocol describes a procedure for monitoring cell viability of K-Ras mutant cancer cell lines in response to a compound of the invention. Other RAS isoforms may be employed, though the number of cells to be seeded will vary based on cell line used.
Test compounds (132.5 nL) were directly dispensed into the assay plates containing cells. […] On day 5, assay plates and their contents were equilibrated to room temperature for approximately 30 minutes. […] Luminescence was measured using the PerkinElmer Enspire. Data were normalized by the following: (Sample signal/Avg. DMSO)*100. The data were fit using a four-parameter logistic fit.

The target in assay [2] is T1, KRAS G12D (Homo sapiens, UniProt P01116+P62937, G12D). Briefly: Ras-Raf disruption / FRET / MOA assay (BRAF RBD). As to conditions: KRAS G12D FRET data IC50, Ras-Raf disruption, with Cyclophilin A. The format is biochemical. A digest of the protocol:
(§1)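 Compound-induced Ras–Cyclophilin A ternary complex disrupting BRAF RBD binding, read as IC50 from reduced TR-FRET ratio relative to DMSO. Final: Ras-GMPPNP 12.5 nM, BRAF RBD 50 nM, Cyclophilin A 25 μM, top compound 30 μM (3-fold, 10 points); 3 h at 25 °C, then 1.5 h with detection antibodies.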

The target in another assay is KRAS G12S (Homo sapiens, UniProt P01116+P62937, G12S). Briefly: Ras-Raf disruption / FRET / MOA assay (BRAF RBD). The format is biochemical. The following applies: KRAS G12S FRET data IC50, Ras-Raf disruption, with Cyclophilin A. In a few lines:
as §1

In the next assay the target is KRAS G12V (Homo sapiens, UniProt P01116+P62937, G12V). In words: Ras-Raf disruption / FRET / MOA assay (BRAF RBD). The following applies: KRAS G12V FRET data IC50, Ras-Raf disruption, with Cyclophilin A. The format is biochemical. In a few lines:
as §1

For assay [3], the target named is T2, KRAS G13C (Homo sapiens, UniProt P01116+P62937, G13C). In words: Ras-Raf disruption / FRET / MOA assay (BRAF RBD). The format is biochemical. As to conditions: KRAS G13C FRET data IC50, Ras-Raf disruption, with Cyclophilin A. A digest of the protocol: as §1
Target sequence in this assay (P01116 1-169 isoform P01116-2 G13C limits assumed): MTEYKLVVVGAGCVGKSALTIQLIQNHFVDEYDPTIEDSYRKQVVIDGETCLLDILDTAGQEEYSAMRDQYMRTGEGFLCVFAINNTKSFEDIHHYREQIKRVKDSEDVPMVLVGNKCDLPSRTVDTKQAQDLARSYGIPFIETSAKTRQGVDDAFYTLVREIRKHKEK
Target sequence in this assay (P62937 whole entry): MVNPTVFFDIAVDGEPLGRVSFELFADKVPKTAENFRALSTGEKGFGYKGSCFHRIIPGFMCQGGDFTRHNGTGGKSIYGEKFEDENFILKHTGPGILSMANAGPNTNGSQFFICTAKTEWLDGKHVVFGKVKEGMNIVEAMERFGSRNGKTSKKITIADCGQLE
Another assay concerns the target KRAS G13D (Homo sapiens, UniProt P01116+P62937, G13D). Briefly: Ras-Raf disruption / FRET / MOA assay (BRAF RBD). The format is biochemical. As to conditions: KRAS G13D FRET data IC50, Ras-Raf disruption, with Cyclophilin A. A digest of the protocol: as §1
The next assay deals with KRAS WT (Homo sapiens, UniProt P01116+P62937). Briefly: Ras-Raf disruption / FRET / MOA assay (BRAF RBD). The format is biochemical. As to conditions: KRAS WT FRET data IC50, Ras-Raf disruption, with Cyclophilin A. In a few lines: as §1
Assay [4] addresses T3, NRAS G12C (Homo sapiens, UniProt P01111+P62937, G12C). In words: Ras-Raf disruption / FRET / MOA assay (BRAF RBD). The format is biochemical. As to conditions: NRAS G12C FRET data IC50, NRAS G12C. In a few lines:
as §1

The target of assay [5] is T4, KRAS G12C (Homo sapiens, UniProt P01116+P62937, G12C). Briefly: Ras-Raf disruption / FRET / MOA assay (BRAF RBD). The format is biochemical. As to conditions: KRAS G12C FRET data IC50, Ras-Raf disruption, with Cyclophilin A. In a few lines: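 TR-FRET read-out after 1.5 h with anti-His Eu-W1024 (10 nM) and anti-GST APC (50 nM), following 3 h at 25 °C of compound (top 30 μM, 3-fold, 10 points) with 25 μM Cyclophilin A, 12.5 nM GMPPNP-loaded K-Ras G12C and 50 nM BRAF RBD; IC50 reported.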
Target sequence in this assay (P01116 1-169 isoform P01116-2 G12C limits assumed): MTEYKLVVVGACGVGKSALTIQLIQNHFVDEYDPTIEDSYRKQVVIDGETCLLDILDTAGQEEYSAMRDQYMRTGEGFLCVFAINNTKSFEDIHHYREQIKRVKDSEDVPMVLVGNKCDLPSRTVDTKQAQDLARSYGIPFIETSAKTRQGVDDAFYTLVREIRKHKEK
Target sequence in this assay (P62937 whole entry): as the sequence (P62937 whole entry) above

The test system of assay [6] is AsPC-1 (K-Ras G12D). In words: Potency assay: pERK. The format is cell-based. As to conditions: Homo sapiens, ASPC1; AsPC-1 KRAS G12D; read-out: pERK EC50.
For assay [7], the system named is K-Ras G12C (NCI-H358 cells). In words: Potency assay: pERK (AlphaLISA SureFire or In-Cell Western). The format is cell-based. As to conditions: Homo sapiens, NCI-H358; H358 KRAS G12C; read-out: pERK EC50. A digest of the protocol: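 Cellular pERK decrease measured after 4 h compound exposure (37 °C, 5% CO2) of NCI-H358 cells, 10-point 3-fold series from 10 mM DMSO stock, duplicates. Detection either by In-Cell Western (IR-800CW secondary, DRAQ5 stain) or AlphaLISA SureFire Ultra p-ERK1/2; 4-parameter sigmoidal fit gave IC50.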
In general terms: In Alpha technology, singlet oxygen from a donor bead excites a nearby acceptor bead.

The test system of a further assay is NCI-H358 (K-Ras G12C). Briefly: CellTiter-Glo cell viability assay, 5-day treatment. The format is cell-based. As to conditions: Homo sapiens, NCI-H358, H358, K-Ras G12C; read-out: Additional H358 Cell Viability assay data (K-Ras G12C, IC50). In a few lines:
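Luminescence read-out after 5 days of compound exposure, with plates first brought to room temperature for roughly 30 minutes. Values are percent of averaged DMSO wells, fitted by four-parameter logistic regression.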
In general terms: Cellular ATP, detected with luciferase, serves as a proxy for viable cell number.

Assay [8] has as its target T4, KRAS G12C. Briefly: Disruption of BRAF RBD interaction with Ras (FRET / MOA assay, with Cyclophilin A). The format is biochemical. The following applies: KRAS G12C; read-out: KRAS G12C FRET data IC50. In a few lines: (§2)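 Here, compound titrations (ten points, factor 3, from 30 μM final) act on nucleotide-bound K-Ras and Cyclophilin A, and ternary complex formation disrupts the RAF RBD interaction.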
Target sequence in this assay (P01116 1-169 isoform P01116-2 G12C): as the sequence (P01116 1-169 isoform P01116-2 G12C limits assumed) above
Target sequence in this assay (P62937 whole entry): as the sequence (P62937 whole entry) above

Assay [9] has as its target T1, KRAS G12D. The description is as above. The format is biochemical. The following applies: read-out: KRAS G12D FRET data, IC50. A digest of the protocol: as §2
For assay [10], the target named is T3, NRAS G12C. The assay is described as above. The format is biochemical. The following applies: NRAS G12C; read-out: NRAS G12C FRET data IC50.
In the next assay the target is NRAS Q61K (Homo sapiens, UniProt P01111+P62937, Q61K). Described as above. The following applies: NRAS Q61K; read-out: NRAS Q61K FRET data IC50. The format is biochemical. A digest of the protocol: (§3)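 IC50 reflects compound-driven Ras:Cyclophilin A ternary complex displacing BRAF RBD, read as lowered TR-FRET ratio relative to DMSO after Eu anti-His (10 nM) and APC anti-GST (50 nM) detection for 1.5 h. Prior incubation 3 h, 25° C, with 12.5 nM GMPPNP-loaded Ras, 50 nM BRAF RBD, 25 μM Cyclophilin A; top compound 30 μM.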

The target of a further assay is NRAS Q61R (Homo sapiens, UniProt P01111+P62937, Q61R). Described as above. The format is biochemical. The following applies: NRAS Q61R; read-out: NRAS Q61R FRET data IC50. A digest of the protocol: as §3
The target in assay [11] is T2, KRAS G13C. Described as above. As to conditions: KRAS G13C; read-out: KRAS G13C FRET data IC50. The format is biochemical. In a few lines: as §2
Target sequence in this assay (P01116 1-169 isoform P01116-2 G13C): as the sequence (P01116 1-169 isoform P01116-2 G13C limits assumed) above
Target sequence in this assay (P62937 whole entry): as the sequence (P62937 whole entry) above
Setting [12] is: K-Ras G12D, 5-day treatment, read-out: AsPC-1 Cell Viability assay data IC50.

Where two headings read alike, the source gives them in different places. A value given as a limit tells only on which side of the number the result lay.

NRAS Q61R, sequence (P01111 whole entry Q61R): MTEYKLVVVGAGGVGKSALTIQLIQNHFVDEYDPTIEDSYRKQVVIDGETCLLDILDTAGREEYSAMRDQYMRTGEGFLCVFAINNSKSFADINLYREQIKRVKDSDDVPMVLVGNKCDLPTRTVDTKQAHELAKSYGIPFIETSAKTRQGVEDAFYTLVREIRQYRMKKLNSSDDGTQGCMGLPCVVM
NRAS Q61R, sequence (P62937 whole entry): as the sequence (P62937 whole entry) above
NRAS Q61K, sequence (P01111 whole entry Q61K): as the sequence (P01111 whole entry Q61R) above, with R61K counted along it
NRAS Q61K, sequence (P62937 whole entry): as the sequence (P62937 whole entry) above
T1 sequence (P01116 1-169 isoform P01116-2 G12D limits assumed): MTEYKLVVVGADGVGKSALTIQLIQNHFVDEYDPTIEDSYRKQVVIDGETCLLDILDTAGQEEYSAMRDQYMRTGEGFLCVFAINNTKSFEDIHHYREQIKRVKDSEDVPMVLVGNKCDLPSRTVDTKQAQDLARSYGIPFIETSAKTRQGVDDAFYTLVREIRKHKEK
T1 sequence (P62937 whole entry): as the sequence (P62937 whole entry) above
T3 sequence (P01111 whole entry G12C): as the sequence (P01111 whole entry Q61R) above, with G12C, R61Q counted along it
T3 sequence (P62937 whole entry): as the sequence (P62937 whole entry) above
KRAS WT, sequence (P01116 1-169 isoform P01116-2 limits assumed): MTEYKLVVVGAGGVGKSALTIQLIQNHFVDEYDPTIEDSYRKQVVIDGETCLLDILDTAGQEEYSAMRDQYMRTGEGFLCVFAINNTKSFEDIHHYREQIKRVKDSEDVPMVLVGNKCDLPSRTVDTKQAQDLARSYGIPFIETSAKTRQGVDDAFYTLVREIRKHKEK
KRAS WT, sequence (P62937 whole entry): as the sequence (P62937 whole entry) above
KRAS G12S, sequence (P01116 1-169 isoform P01116-2 G12S limits assumed): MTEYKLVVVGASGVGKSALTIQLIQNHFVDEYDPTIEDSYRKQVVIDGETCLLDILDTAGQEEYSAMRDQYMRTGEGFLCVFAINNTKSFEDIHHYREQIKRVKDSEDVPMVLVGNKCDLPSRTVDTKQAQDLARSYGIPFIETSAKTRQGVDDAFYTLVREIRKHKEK
KRAS G12S, sequence (P62937 whole entry): as the sequence (P62937 whole entry) above
KRAS G13D, sequence (P01116 1-169 isoform P01116-2 G13D limits assumed): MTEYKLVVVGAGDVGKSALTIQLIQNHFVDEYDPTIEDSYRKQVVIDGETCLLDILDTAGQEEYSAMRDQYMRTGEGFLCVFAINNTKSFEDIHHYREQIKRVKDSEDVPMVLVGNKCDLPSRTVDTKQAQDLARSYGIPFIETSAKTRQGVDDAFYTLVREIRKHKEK
KRAS G13D, sequence (P62937 whole entry): as the sequence (P62937 whole entry) above
KRAS G12V, sequence (P01116 1-169 isoform P01116-2 G12V limits assumed): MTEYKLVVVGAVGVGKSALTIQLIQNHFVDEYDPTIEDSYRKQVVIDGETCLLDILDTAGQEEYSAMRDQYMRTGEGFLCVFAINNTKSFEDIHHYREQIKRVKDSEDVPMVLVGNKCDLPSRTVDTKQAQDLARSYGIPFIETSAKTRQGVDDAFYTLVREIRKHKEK
KRAS G12V, sequence (P62937 whole entry): as the sequence (P62937 whole entry) above

For the compound `CCn1c(-c2cccnc2[C@H](C)OC)c2c3cc(ccc31)-c1cc(O)cc(c1)C[C@H](NC(=O)[C@H](C(C)C)N(C)C(=O)CN(C)C(=O)[C@H]1N[C@@H]1C1CC1)C(=O)N1CCC[C@H](N1)C(=O)OCC(C)(C)C2` [Example 135], the IC50 was 0.1 to 1 µM with AsPC-1 (K-Ras G12D) [1] (read-out: AsPC-1 Cell Viability assay data IC50, K-Ras G12D, 5-day treatment); 0.01 to 0.1 µM against KRAS G12D [2]; below 0.01 µM against KRAS G12S; 0.01 to 0.1 µM at KRAS G12V; below 0.01 µM against KRAS G13C [3]; 0.01 to 0.1 µM against KRAS G13D. The IC50 against KRAS WT was 0.01 to 0.1 µM; on NRAS G12C [4], below 0.01 µM; on KRAS G12C [5] it was below 0.01 µM.

For the compound `CCn1c(-c2cccnc2[C@H](C)OC)c2c3cc(ccc31)-c1cc(O)cc(c1)C[C@H](NC(=O)[C@@H](C(C)C)N(C)C(=O)[C@@]1(C)CCCN1C(=O)[C@H]1CN1)C(=O)N1CCC[C@H](N1)C(=O)OCC(C)(C)C2` [Example 240], the EC50 in the assay with AsPC-1 (K-Ras G12D) [6] was below 5 µM. The IC50 in the assay with AsPC-1 (K-Ras G12D) [1] (setting [12]) is 1 to 10 µM.

Consider `CCn1c(-c2cccnc2[C@H](C)OC)c2c3cc(ccc31)-c1cc(O)cc(c1)C[C@H](NC(=O)[C@@H](C(C)C)N(C)C(=O)[C@@]1(C)CCCN1C(=O)[C@@H]1CN1)C(=O)N1CCC[C@H](N1)C(=O)OCC(C)(C)C2` [Example 242], for which the half-maximal effective concentration (EC50) in the assay with AsPC-1 (K-Ras G12D) [6] is below 5 µM. In addition, the IC50 in the assay with AsPC-1 (K-Ras G12D) [1] (setting [12]) was 1 to 10 µM.

Regarding `CCn1c(-c2cccnc2[C@H](C)OC)c2c3cc(ccc31)-c1cc(O)cc(c1)C[C@H](NC(=O)[C@H](C(C)C)N(C)C(=O)[C@]13C[C@H]1CCN3C(=O)[C@H]1CN1)C(=O)N1CCC[C@H](N1)C(=O)OCC(C)(C)C2` [Example 244], in the assay on AsPC-1 (K-Ras G12D) [6], the EC50 was below 5 µM. Moreover, in the assay with AsPC-1 (K-Ras G12D) [1] (setting [12]), the IC50 was 1 to 10 µM.

Turning to `CCn1c(-c2cccnc2[C@H](C)OC)c2c3cc(ccc31)N1CCC[C@@H](C[C@H](NC(=O)[C@H](C(C)C)N(C)C(=O)C3(F)CCN(C(=O)C#CC(C)(C)N(C)C)CC3)C(=O)N3CCCC(N3)C(=O)OCC(C)(C)C2)C1` [Example A616], the EC50 in assay [7] was below 5 µM. Also, the IC50 with NCI-H358 (K-Ras G12C) is below 0.01 µM; on KRAS G12C [8], 0.01 to 0.1 µM; on KRAS G12D [9], above 10 µM; at NRAS G12C [10], below 0.01 µM; on NRAS Q61K it was above 10 µM; on NRAS Q61R, above 10 µM.

As to `C=CC(=O)N(C)CC1CCN(C(=O)N(C)[C@H](C(=O)N[C@H]2Cc3nc(cs3)-c3ccc4c(c3)c(c(-c3cccnc3[C@H](C)OC)n4CC)CC(C)(C)COC(=O)C3CCCN(N3)C2=O)C(C)C)CC1` (stereo partly shown) [Example A629], in [7], the half-maximal effective concentration (EC50) is below 5 µM. Moreover, the IC50 in the assay on NCI-H358 (K-Ras G12C) was below 0.01 µM; at KRAS G12D [9] it was 0.1 to 1 µM; on KRAS G13C [11], 0.01 to 0.1 µM; on NRAS G12C [10] it was 0.01 to 0.1 µM; on NRAS Q61K, 0.01 to 0.1 µM; on NRAS Q61R it was 0.01 to 0.1 µM.

For `C=CC(=O)N1CC2[C@@H](C1)CN2C(=O)N(C)[C@H](C(=O)N[C@H]1Cc2nc(cs2)-c2ccc3c(c2)c(c(-c2cccnc2[C@H](C)OC)n3CC)CC(C)(C)COC(=O)[C@@H]2CCCN(N2)C1=O)C(C)C` (stereo partly shown) [Example A686], the EC50 in [7] was below 5 µM. In addition, the IC50 with NCI-H358 (K-Ras G12C) was below 0.01 µM; on NRAS G12C [10] it was 0.01 to 0.1 µM; on NRAS Q61K, 0.01 to 0.1 µM; at NRAS Q61R, 0.1 to 1 µM.

Usually IC50 stands for the point on the concentration scale where inhibition reaches its midpoint. As usually defined, the EC50 is the midpoint of the concentration-response curve.
